One test has as its system K. pneumoniae. Briefly: dye formation from RIND VII in presence of calimycin, K. pneumoniae. The arrangement: key: 0: no dye formation; +/-: faint dye formation; 1+: light dye formation; 2+: moderate dye formation; 3+: strong dye formation; 4+: very strong dye formation. Type of test: cell-based, Klebsiella pneumoniae (ATCC 13883). Conditions: calimycin 10^-3 molar, calcium chloride. Here is the method:
(§1) gram-negative bacteria Enterobacter cloacae (ATCC 23355), Escherichia coli (ATCC 25922), Proteus vulgaris (ATCC 13315), Klebsiella pneumoniae (ATCC 13883) and Pseudomonas aeruginosa (ATCC 27853), and gram-positive bacteria Staphylococcus aureus (ATCC 25923) and Streptococcus pyogenes (ATCC 19615), and brain heart infusion (BHI) broth from Difco Laboratories (Detroit, Mich.),
(§2) Bacterial suspensions were prepared by growing the cells in BHI to stationary phase overnight at 37° C. P. aeruginosa was grown with agitation. […]
(§3) TERGITOL 7 anionic surfactant was used to differentiate viable bacteria according to the prior art method. […] The amount of dye formed was then determined visually and graded as follows: 0 indicates no dye formation, +/- indicates faint dye formation, 1+ indicates light dye formation, 2+ indicates moderate dye formation, 3+ indicates strong dye formation, and 4+ indicates very strong dye formation.
(§4) Calimycin, a polyether antibiotic, was similarly used with RIND VII in the differentiation of bacteria. Assays were performed as described above, except that 25 μl of 1 molar calcium chloride solution was added to each test solution and the P. aeruginosa response was measured in the presence of 10% yeast extract as the carbon source instead of glucose. […]

In the next test the test system is P. aeruginosa. Briefly: dye formation from RIND VII in presence of calimycin, P. aeruginosa. Type of test: cell-based, Pseudomonas aeruginosa (ATCC 27853). Also noted: key: 0: no dye formation; +/-: faint dye formation; 1+: light dye formation; 2+: moderate dye formation; 3+: strong dye formation; 4+: very strong dye formation. The settings on record: calimycin 10^-3 molar, calcium chloride, 10% yeast extract instead of glucose. Here is the method: as §1, §2, §3, §4

For another test, the system named is E. coli (gram -). In words: inhibition of the reduction of RIND XXXV in dry analytical element (Example 6), E. coli. It counts as cell-based, Escherichia coli (ATCC 25922). Conditions: calcium chloride, 30 minutes, 37° C. On the procedure: as §1, §2
Optical density readings (OD) were made at 635 nm at 0 minutes and after incubation at 37° C. for 30 minutes for all solutions, and the change (ΔOD) was determined. […] The corrected percent inhibition was calculated by dividing the difference between ΔOD obtained from a Control test without antibiotic and the ΔOD of the test, by the ΔOD of the Control without antibiotic. All readings were corrected by subtracting readings of the appropriate background control. […]
The relative fluorescence (excitation 540 nm, emission 620 nm) was measured using a standard spectrophotometer, and the change in relative fluorescence was determined after 30 minutes at 37° C. […]

In another test the test system is S. aureus (gram +). In words: inhibition of the reduction of RIND XXXV in dry analytical element (Example 6), S. aureus. It counts as cell-based, Staphylococcus aureus (ATCC 25923). Conditions: calcium chloride, 30 minutes, 37° C.
Test [1] concerns viable gram-positive and gram-negative bacteria. In words: differentiation of viable gram-positive and gram-negative bacteria (outcome in words). It counts as cell-based. Conditions: RIND VII; calimycin 10^-3 molar. On the procedure: as §1
Bacterial suspensions were prepared by growing the cells in BHI to stationary phase overnight at 37° C. P. aeruginosa was grown with agitation. About 40 ml of overnight cultures were centrifuged, decanted and washed once with 0.05 molar potassium phosphate buffer or 0.05 molar N-2-hydroxyethylpiperazine-N'-2-ethanesulfonic acid (HEPES) buffer, pH 7.8, and resuspended in buffer.
TERGITOL 7 anionic surfactant was used to differentiate viable bacteria according to the prior art method. Various concentrations of TERGITOL 7 surfactant were mixed with a 10% glucose solution (50 μl), 3-(4,5-dimethyl-2-thiazolyl)-2,5-diphenyl-2N-tetrazolium bromide (MTT) in methanol (25 μl at 5 mg/ml) or a RIND VII dispersion (1.5 ml) and phenazine methosulfate ETA (25 μl at 3 mg/ml methanol). The volume of each test solution was brought to 3 ml with potassium phosphate buffer. A cell suspension (100 μl at about 10^8 cells/ml) was then added. The solutions were incubated at 37° C. for 15 and 30 minutes in the presence of either E. coli, a gram (-) bacterium, or S. aureus, a gram (+) bacterium. The amount of dye formed was then determined visually and graded as follows: 0 indicates no dye formation, +/- indicates faint dye formation, 1+ indicates light dye formation, 2+ indicates moderate dye formation, 3+ indicates strong dye formation, and 4+ indicates very strong dye formation.
Calimycin, a polyether antibiotic, was similarly used with RIND VII in the differentiation of bacteria. Assays were performed as described above, except that 25 μl of 1 molar calcium chloride solution was added to each test solution and the P. aeruginosa response was measured in the presence of 10% yeast extract as the carbon source instead of glucose. The final concentration of calimycin in each test was 10^-3 molar.
The test solutions were prepared by adding the following, in order: 1.2 ml HEPES, 50 μl glucose solution, 1.5 ml RIND VII dispersion, 100 μl antibiotic solution, 100 μl cell suspension and 25 μl ETA solution. Cell control solutions contained all reagents except antibiotics. Background Controls consisted of both buffer and solution controls. The buffer control contained all reagents except antibiotics and cells. The solution control contained all reagents except cells.
Optical density readings (OD) were made at 635 nm at 0 minutes and after incubation at 37° C. for 30 minutes for all solutions, and the change (ΔOD) was determined. Table V below lists the results expressed as corrected percent inhibition of the reduction of RIND VII. The corrected percent inhibition was calculated by dividing the difference between ΔOD obtained from a Control test without antibiotic and the ΔOD of the test, by the ΔOD of the Control without antibiotic. All readings were corrected by subtracting readings of the appropriate background control.
Relative fluorescence was measured using a standard spectrophotometer modified to read at excitation of 540 nm and emission of 620 nm. The change (Δ) in relative fluorescence was determined after 30 minutes at 37° C. for several concentration levels of antibiotic.
Optical density measurements were obtained at 540 nm using a standard spectrophotometer and the change in optical density (ΔOD) was determined after 30 minutes at 37° C. The resulting data are shown in Table VII below for several concentrations of antibiotic. It is clear from the data that the composition of this example was useful for differentiating bacteria. […]

As to `CNc1ccc2oc(C[C@H]3O[C@@]4(CC[C@H]3C)O[C@H]([C@H](C)C(=O)c3ccc[nH]3)[C@H](C)C[C@H]4C)nc2c1C(=O)O` [calimycin, Calimycin], the dye formation in the test on K. pneumoniae (15 Minutes) was 4+; in the test with K. pneumoniae (30 Minutes) it was 4+; with P. aeruginosa (15 Minutes) it was 2+; in the test on P. aeruginosa (30 Minutes), 4+. Besides, the “Corrected Percent Inhibition” value with E. coli (gram -) worked out at 11.5%; in the test on S. aureus (gram +), 70%. Besides, the “inhibition of the reduction of the reducible compounds by viable gram-positive bacteria” value in test [1] was “selectively and substantially inhibits the reduction of the reducible compounds”. In test [1], the “reductive capability of the viable gram-negative bacteria” value is recorded as “not inhibited”.

These data come from US4885239A, “Rapid differentiation of bacteria using polyether antibiotics” (Eastman Kodak Company, priority 1986, dated 1989).
